Measured values from paper PMC6423188, “HYNIC and DOMA conjugated radiolabeled bombesin analogs as receptor-targeted probes for scintigraphic detection of breast tumor” (EJNMMI Research, 2019).
Where a SMILES comes first, the peptide text is derived from it.

How the values were obtained:
GRPR = biological target: T1, GRPR (Homo sapiens, UniProt P30550); assay: In vitro receptor binding assay, competition with 99mTc-BNS; settings: unlabeled analogs, radioligand 99mTc-BNS
T1 construct: endogenous in cells; host or cells: MDA-MB-231 human breast cancer cells (from NCCS, Pune)
T1 sequence (P30550 whole entry): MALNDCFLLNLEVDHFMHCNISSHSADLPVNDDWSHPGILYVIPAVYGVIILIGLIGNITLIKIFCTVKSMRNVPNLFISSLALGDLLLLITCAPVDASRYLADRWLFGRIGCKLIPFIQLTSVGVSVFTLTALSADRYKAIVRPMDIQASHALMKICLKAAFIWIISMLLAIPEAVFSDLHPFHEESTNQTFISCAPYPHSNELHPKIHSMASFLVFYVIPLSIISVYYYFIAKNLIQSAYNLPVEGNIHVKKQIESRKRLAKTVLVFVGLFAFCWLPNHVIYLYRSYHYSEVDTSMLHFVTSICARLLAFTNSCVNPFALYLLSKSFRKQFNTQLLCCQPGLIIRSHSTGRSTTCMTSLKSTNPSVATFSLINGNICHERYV
Procedure: One day prior to the assay, cells at the confluence were placed in 12-well plates. […] Inhibitory assays were done on GRPR-expressing MDA-MB-231 human breast cancer cells using the standard procedure with modifications. […] After 1-h incubation, cells were washed twice with cold PBS. Receptor bound radioactivity was recovered by solubilizing the cells with 400 μL 1 N NaOH at 37 °C. Binding activities were evaluated in the gamma counter. IC50 (the best-fit 50% inhibitory concentration) values were determined using nonlinear regression.
It may be mentioned that non-radioactive Re complex can be used in place of its unlabeled ligand to determine the binding affinity after complexation reaction. This is being proposed to use the non-radioactive Re complex in place of its unlabeled ligand to determine the binding affinity after complexation in future studies.

MDA-MB-231 tumor = assay: Angiogenic and proliferative markers in tumor (IHC); assay type: in vivo, mouse; settings: tumor-bearing mice treated i.v. every day for 2 weeks
Procedure: Tumor-bearing mice were intravenously treated with BN4 peptide at every day for 2 weeks as BN4 has shown the highest affinity and stability to GRP with compare to other analogs. Mice were sacrificed and tumor tissue sections were used for immunohistochemical (IHC) analyses. IHC was performed by the aforementioned methods with the primary antibodies such as anti-CD31 and anti-Ki67 (Abcam, Cambridge, Massachusetts, USA) to determine the expression of angiogenic and proliferative markers in the tumor.

MDA-MB-231 cells = assay: Western blot analysis; assay type: cell-based, human; settings: 24 h, BN3, BN4 7.5 and 5 pM, BNS 7.5 pM
Excerpt: After washing in ice-cold PBS, proteins were extracted from cells with lysis buffer containing 100 mmol/L Tris-HCl, pH 8.0, 150 mmol/L NaCl, 1% sodium dodecyl sulfate, 10% glycerol, 1% Triton X, 5 mmol/L ethylenediaminetetraacetic acid, 1 mmol/L phenyl methyl sulfonyl fluoride, 10 mmol/L sodium fluoride, 1 mmol/L sodium orthovanadate, 1 mmol/L-glycerophosphate, and protease inhibitor cocktail tablets (Roche, Switzerland). Total proteins from cell were also extracted by using standard procedure. Protein concentrations were determined by Bradford reagent (BioRad, USA). Extracted proteins were separated by sodium dodecyl sulphate polyacrylamide gel electrophoresis and transferred to polyvinylidene fluoride (PVDF) membranes. Membranes blocking were done by 5% nonfat milk in Tris-buffered saline containing 0.1% polysorbate-20 and incubated with primary antibodies GRPR (Abcam, USA), VEGF, PCNA, Phospho-p38, and HIF-1α (Santa Cruz Biotechnology) for overnight at 4 °C. β-actin antibodies (Millipore) were used to confirm equal protein loading. Detection of primary antibodies was done by alkaline phosphatase conjugated secondary antibodies (1:5000 dilutions) and the detection was done by colorimetry using NBT-BCIP as substrate (Sigma-Aldrich). Detection of GRPR primary antibody was done by horseradish peroxidase conjugated secondary antibodies. The level of β-actin was used as a loading control and was not altered under any of the condition used.

[1] = GRP receptor expressing MDA-MB-231 cells, values printed in Fig. 4
[2] = MDA-MB-231 cells/membranes, 1 h, 37 °C

IC50 (GRPR; [1])	IC50 (GRPR; [2])	Compound	expression of CD31 and Ki67 in tumor sections (IHC) (MDA-MB-231 tumor)	level of GRPR (Western blot) (MDA-MB-231 cells)
4.63 nM		CSCC[C@H](NC(=O)[C@@H](Cc1ccc(O)cc1)NC(=O)[C@H](Cc1c[nH]cn1)NC(=O)CNC(=O)[C@@H](NC(=O)[C@H](C)NC(=O)[C@H](Cc1c[nH]c2ccccc12)NC(=O)[C@H](CCC(N)=O)NC(=O)[C@H](CC(=O)O)NC(=O)[C@@H]1CCCN1C(=O)c1ccc(NN)nc1)C(C)C)C(N)=O [BN2, HYNIC-Pro-Asp-[D-Tyr^13Met^14] BN(7-14)NH2] (HELM PEPTIDE1{[NNc1ccc(C(=O)[*:2])cn1].P.D.Q.W.A.V.G.H.[dY].M.[am]}$$$$V2.0)		
	3.15 nM	CCCC[C@H](NC(=O)[C@@H](Cc1ccc(O)cc1)NC(=O)[C@H](Cc1c[nH]cn1)NC(=O)[C@@H]1CCCN1C(=O)[C@@H](NC(=O)[C@H](C)NC(=O)[C@H](Cc1c[nH]c2ccccc12)NC(=O)[C@H](CCC(N)=O)NC(=O)CCCNC(=O)CN1CCNCCNCCNCC1)C(C)C)C(N)=O [BN4, DOMA-GABA-[Pro^5-D-Tyr^13Nle^14]-BN(7-14)-NH2] (HELM PEPTIDE1{[O=C(CN1CCNCCNCCNCC1)[*:2]].[O=C(CCCN[*:1])[*:2]].Q.W.A.V.P.H.[dY].[Nle].[am]}$$$$V2.0)	enhanced expression of CD31, Ki67	significantly increased level of GRPR

Further lines, the compound ahead of its results:

Compound	IC50 (GRPR; [1])	IC50 (GRPR; [2])	expression of CD31 and Ki67 in tumor sections (IHC) (MDA-MB-231 tumor)	level of GRPR (Western blot) (MDA-MB-231 cells)
CCCC[C@H](NC(=O)[C@@H](Cc1ccccc1)NC(=O)[C@H](Cc1c[nH]cn1)NC(=O)CNC(=O)[C@@H](NC(=O)[C@H](C)NC(=O)[C@H](Cc1c[nH]c2ccccc12)NC(=O)[C@H](CCC(N)=O)NC(=O)[C@H](CC(=O)O)NC(=O)c1ccc(NN)nc1)C(C)C)C(N)=O [BN1, HYNIC-Asp-[D-Phe^13Nle^14]BN(7-14)NH2] (HELM PEPTIDE1{[NNc1ccc(C(=O)[*:2])cn1].D.Q.W.A.V.G.H.[dF].[Nle].[am]}$$$$V2.0)	4.47 nM	3.96 nM		
CSCC[C@H](NC(=O)[C@H](CC(C)C)NC(=O)[C@H](Cc1c[nH]cn1)NC(=O)CNC(=O)[C@@H](NC(=O)[C@H](C)NC(=O)[C@H](Cc1c[nH]c2ccccc12)NC(=O)[C@@H](N)CCC(N)=O)C(C)C)C(N)=O [BNS, reference compound]				significantly increased level of GRPR
CCCC[C@H](NC(=O)[C@@H](CC1CCCCC1)NC(=O)[C@H](Cc1c[nH]cn1)NC(=O)[C@H](CCCCN)NC(=O)[C@@H](NC(=O)[C@H](C)NC(=O)[C@H](Cc1c[nH]c2ccccc12)NC(=O)[C@H](CCC(N)=O)NC(=O)[C@H](CC(N)=O)NC(=O)[C@H](CC(=O)O)NC(=O)c1ccc(NN)nc1)C(C)C)C(N)=O [BN3, HYNIC-Asp-Asn-[Lys^5-D-CHAla^13Nle^14]BN(7-14)-NH2] (HELM PEPTIDE1{[NNc1ccc(C(=O)[*:2])cn1].D.N.Q.W.A.V.K.H.[O=C([C@@H](CC1CCCCC1)N[*:1])[*:2]].[Nle].[am]}$$$$V2.0)				significantly increased level of GRPR
